Experiment [1] addresses T1, P2X7 (Homo sapiens, UniProt Q99572).
T1 sequence (Q99572 1-595): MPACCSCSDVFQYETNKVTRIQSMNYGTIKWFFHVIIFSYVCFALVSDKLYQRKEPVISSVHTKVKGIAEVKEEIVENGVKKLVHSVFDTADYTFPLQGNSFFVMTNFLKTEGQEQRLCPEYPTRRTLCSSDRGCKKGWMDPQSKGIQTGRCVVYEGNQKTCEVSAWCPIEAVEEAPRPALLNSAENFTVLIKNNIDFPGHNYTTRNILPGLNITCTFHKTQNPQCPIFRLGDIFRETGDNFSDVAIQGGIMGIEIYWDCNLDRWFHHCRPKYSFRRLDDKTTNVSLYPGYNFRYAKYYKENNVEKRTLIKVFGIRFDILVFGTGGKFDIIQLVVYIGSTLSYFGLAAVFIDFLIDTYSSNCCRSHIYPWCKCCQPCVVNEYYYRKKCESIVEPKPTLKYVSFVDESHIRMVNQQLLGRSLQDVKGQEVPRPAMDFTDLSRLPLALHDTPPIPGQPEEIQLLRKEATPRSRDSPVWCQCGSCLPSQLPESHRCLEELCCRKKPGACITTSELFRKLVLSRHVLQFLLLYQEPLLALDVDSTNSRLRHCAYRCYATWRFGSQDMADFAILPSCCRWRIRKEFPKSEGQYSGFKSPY
The experiment is described as follows: Radioligand binding, human P2X7-1321N1 cell membranes, tritiated A-804598.
Description: (§1) P2X7 Antagonism in Recombinant Human P2X7 Cells or Recombinant Rat P2X7 Cells: (a) Ca^2+ Flux and (b) Radioligand Binding

Experiment [2] concerns the target T1, P2X7. The experiment is described as follows: Ca2+ flux (FLIPR) in 1321N1 cells expressing recombinant human P2X7 channel. Format: cell-based. More on the design: expressed in transfected cells; host or cells: 1321N1 cells. To be noted: 250 μM BzATP. An outline of the steps:
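1321N1 cells expressing recombinant human P2X7, loaded 60 min with Calcium-4 dye in HEPES buffer pH 7.40 (1 mM CaCl2, 1 mM MgCl2), preincubated 30 min with compounds. Fluorescence change recorded 180 seconds after agonist addition.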
On the technique in general: Calcium flux is commonly read through the fluorescence of an indicator in the cells.

Experiment [3] addresses T2, rat P2X7 (Rattus norvegicus, UniProt Q64663).
T2 sequence (Q64663 1-595): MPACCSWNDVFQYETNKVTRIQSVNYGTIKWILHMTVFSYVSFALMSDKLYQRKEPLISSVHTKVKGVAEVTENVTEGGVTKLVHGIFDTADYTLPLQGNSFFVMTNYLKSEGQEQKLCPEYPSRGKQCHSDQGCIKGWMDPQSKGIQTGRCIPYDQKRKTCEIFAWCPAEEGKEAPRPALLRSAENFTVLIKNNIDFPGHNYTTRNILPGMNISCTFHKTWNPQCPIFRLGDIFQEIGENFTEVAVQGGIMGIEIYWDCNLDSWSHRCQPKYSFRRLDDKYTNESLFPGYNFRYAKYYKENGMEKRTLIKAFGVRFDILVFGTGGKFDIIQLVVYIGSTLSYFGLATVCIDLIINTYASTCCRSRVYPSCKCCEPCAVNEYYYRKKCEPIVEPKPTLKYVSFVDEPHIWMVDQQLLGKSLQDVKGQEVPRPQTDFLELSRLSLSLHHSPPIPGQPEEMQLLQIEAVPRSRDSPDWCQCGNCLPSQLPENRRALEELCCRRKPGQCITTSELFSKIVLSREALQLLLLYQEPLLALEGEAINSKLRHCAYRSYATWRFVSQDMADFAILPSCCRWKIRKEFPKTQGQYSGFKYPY
The experiment is described as follows: Ca2+ flux (FLIPR) in 1321N1 cells expressing recombinant rat P2X7 channel. The settings on record: 250 μM BzATP.

Experiment [4] addresses T2, rat P2X7. The experiment is described as follows: Radioligand binding, rat P2X7-1321N1 cell membranes, tritiated A-804598.
Description: as §1

Where two headings read alike, the source gives them in different places.

One may read the Ki as a measure of affinity in units of concentration, obtained from inhibition or displacement. As a reminder, the IC50 is the concentration at which inhibition is half-maximal. For the molecule `O=C(c1cccc(C(F)(F)F)c1Cl)N1CCn2c(nnc2C(F)(F)F)C1c1ccccc1` (racemic) [Example 75, (±)-(2-chloro-3-(trifluoromethyl)phenyl)(8-phenyl-3-(trifluoromethyl)-5,6-dihydro-[1,2,4]triazolo[4,3-a]pyrazin-7(8H)-yl)methanone], the figures for the Ki at P2X7 [1] and on rat P2X7 [4] were 28.8 nM and 25.1 nM, respectively. Moreover, the concentration for half-maximal inhibition (IC50) on P2X7 [2] is 52.9 nM; at rat P2X7 [3] (FLIPR (rat) IC50 (μM)), 0.542 µM.
`C[C@@H]1c2nnc(-c3ccccn3)n2CCN1C(=O)c1cccc(Cl)c1Cl` (single isomer, unassigned) [Example 2]: the IC50 on rat P2X7 [3] (FLIPR (rat) IC50 (μM)) came to 0.815 µM. The molecule further had a Ki at rat P2X7 [4] of 9.3 nM.
Take `C[C@H]1c2nnc(-c3ccccn3)n2CCN1C(=O)c1cccc(Cl)c1Cl` (single isomer, unassigned) [Example 3]: the IC50 at rat P2X7 [3] (FLIPR (rat) IC50 (μM)) was above 10 µM. The Ki on rat P2X7 [4] was found to be 1780 nM.
Turning to `C[C@H]1Cn2c(nnc2-c2ccccc2F)CN1C(=O)c1cccc(Cl)c1Cl` [Example 38, (S)-(2,3-dichlorophenyl)(3-(2-fluorophenyl)-6-methyl-5,6-dihydro-[1,2,4]triazolo[4,3-a]pyrazin-7(8H)-yl)methanone], the values for the IC50 at P2X7 [2] and on rat P2X7 [3] (FLIPR (rat) IC50 (μM)) were 9930 nM and 7.67 µM, respectively. The molecule also showed a Ki on rat P2X7 [4] of 56.2 nM.
The corresponding values for `C[C@H]1Cn2c(nnc2-c2cccc(F)c2)CN1C(=O)c1cccc(C(F)(F)F)c1Cl` [Example 42, (S)-(2-chloro-3-(trifluoromethyl)phenyl)(3-(3-fluorophenyl)-6-methyl-5,6-dihydro-[1,2,4]triazolo[4,3-a]pyrazin-7(8H)-yl)methanone] are 2130 nM, 9.23 µM and 18.6 nM.
With `C[C@H]1Cn2c(nnc2-c2cccc(F)c2)CN1C(=O)c1ccc(F)c(Cl)c1Cl` [Example 43, (S)-(2,3-dichloro-4-fluorophenyl)(3-(3-fluorophenyl)-6-methyl-5,6-dihydro-[1,2,4]triazolo[4,3-a]pyrazin-7(8H)-yl)methanone], the IC50 on P2X7 [2] was 9710 nM; on rat P2X7 [3] (FLIPR (rat) IC50 (μM)) it was above 10 µM. In addition, at rat P2X7 [4], the affinity, expressed as Ki, was 133 nM.
For the molecule `Cc1nnc2n1CCN(C(=O)c1cccc(C(F)(F)F)c1Cl)[C@H]2c1ccccc1` [Example 66, (S)-(2-chloro-3-(trifluoromethyl)phenyl)(3-methyl-8-phenyl-5,6-dihydro-[1,2,4]triazolo[4,3-a]pyrazin-7(8H)-yl)methanone], the Ki was 7.9 nM at P2X7 [1] and 2 nM on rat P2X7 [4]. The values for the IC50 on P2X7 [2] and on rat P2X7 [3] (FLIPR (rat) IC50 (μM)) were 2.7 nM and 0.0269 µM, respectively.
The like results for `C[C@H]1Cn2c(nnc2-c2ccc(F)cn2)CN1C(=O)c1cccc(C(F)(F)F)c1Cl` [Example 70, (S)-(2-chloro-3-(trifluoromethyl)phenyl)(3-(5-fluoropyridin-2-yl)-6-methyl-5,6-dihydro-[1,2,4]triazolo[4,3-a]pyrazin-7(8H)-yl)methanone] were, in that order, 12.6 nM, 4 nM, 6.9 nM and 0.0077 µM.
As for `COc1ccc(-c2nnc3n2C[C@H](C)N(C(=O)c2cccc(Cl)c2Cl)C3)nc1` [Example 72, (S)-(2,3-dichlorophenyl)(3-(5-methoxypyridin-2-yl)-6-methyl-5,6-dihydro-[1,2,4]triazolo[4,3-a]pyrazin-7(8H)-yl)methanone], the IC50 was 8590 nM at P2X7 [2] and above 10 µM on rat P2X7 [3] (FLIPR (rat) IC50 (μM)). This molecule returned a Ki on rat P2X7 [4] of 178 nM.
`O=C(c1cccc(C(F)(F)F)c1Cl)N1CCn2c(C3CC3)nnc2[C@@H]1c1ccccc1` [Example 76, (S)-(2-chloro-3-(trifluoromethyl)phenyl)(3-cyclopropyl-8-phenyl-5,6-dihydro-[1,2,4]triazolo[4,3-a]pyrazin-7(8H)-yl)methanone]: the Ki on P2X7 [1] worked out at 10 nM; on rat P2X7 [4], 5 nM. In addition, the IC50 is 6.7 nM on P2X7 [2] and 0.0168 µM on rat P2X7 [3] (FLIPR (rat) IC50 (μM)).
Consider `CC(C)(C)c1nnc2n1CCN(C(=O)c1cccc(C(F)(F)F)c1Cl)[C@@H]2c1ccccc1` [Example 81, (R)-(3-(tert-butyl)-8-phenyl-5,6-dihydro-[1,2,4]triazolo[4,3-a]pyrazin-7(8H)-yl)(2-chloro-3-(trifluoromethyl)phenyl)methanone], for which the values for the Ki at P2X7 [1] and at rat P2X7 [4] were 50.1 nM and 8.9 nM, respectively. The IC50 at P2X7 [2] amounted to 11.3 nM; on rat P2X7 [3] (read-out: FLIPR (rat) IC50), 0.027 µM.
As to `CCc1nnc2n1CCN(C(=O)c1cccc(C(F)(F)F)c1Cl)[C@@H]2c1ccccc1` [Example 86, (R)-(2-chloro-3-(trifluoromethyl)phenyl)(3-ethyl-8-phenyl-5,6-dihydro-[1,2,4]triazolo[4,3-a]pyrazin-7(8H)-yl)methanone], the values for the Ki on P2X7 [1] and on rat P2X7 [4] were 12.6 nM and 10 nM, respectively. Moreover, the figures for the IC50 at P2X7 [2] and at rat P2X7 [3] (read-out: FLIPR (rat) IC50) were 2.3 nM and 0.0585 µM, respectively.
On to `CC(C)c1nnc2n1CCN(C(=O)c1cccc(C(F)(F)F)c1Cl)[C@@H]2c1ccccc1` [Example 88, (R)-(2-chloro-3-(trifluoromethyl)phenyl)(3-isopropyl-8-phenyl-5,6-dihydro-[1,2,4]triazolo[4,3-a]pyrazin-7(8H)-yl)methanone], for which the Ki on P2X7 [1] was 20 nM; at rat P2X7 [4], 25.1 nM. The IC50 at P2X7 [2] turned out to be 10.2 nM; on rat P2X7 [3] (FLIPR (rat) IC50 (μM)) it was 0.166 µM.
As to `O=C(c1cccc(C(F)(F)F)c1Cl)N1CCn2c(C3CCC3)nnc2[C@H]1c1ccccc1` [Example 93, (R)-(2-chloro-3-(trifluoromethyl)phenyl)(3-cyclobutyl-8-phenyl-5,6-dihydro-[1,2,4]triazolo[4,3-a]pyrazin-7(8H)-yl)methanone], the values for the Ki at P2X7 [1] and at rat P2X7 [4] were 15.8 nM and 6.3 nM, respectively. Moreover, the IC50 on P2X7 [2] was 8.1 nM; at rat P2X7 [3] (FLIPR (rat) IC50 (μM)) it was 0.0178 µM.
As for `O=C(c1ccc(Cl)cc1Cl)N1CCn2c(nnc2C(F)(F)F)[C@H]1c1ccccc1` [Example 120, (R)-(2,4-dichlorophenyl)(8-phenyl-3-(trifluoromethyl)-5,6-dihydro-[1,2,4]triazolo[4,3-a]pyrazin-7(8H)-yl)methanone], the affinity on P2X7 [1] corresponds to a Ki of 50.1 nM. Also, the figures for the IC50 on P2X7 [2] and on rat P2X7 [3] (FLIPR (rat) IC50 (μM)) were 476 nM and above 10 µM, respectively.
The corresponding values for `Cc1c(C(=O)N2CCn3c(nnc3C(F)(F)F)[C@H]2c2ccccc2)cccc1C(F)(F)F` [Example 122, (R)-(2-methyl-3-(trifluoromethyl)phenyl)(8-phenyl-3-(trifluoromethyl)-5,6-dihydro-[1,2,4]triazolo[4,3-a]pyrazin-7(8H)-yl)methanone] are 10 nM, 9.8 nM and 0.262 µM.
Consider `O=C(c1ccc(F)c(Cl)c1Cl)N1CCn2c(nnc2C(F)(F)F)[C@H]1c1ccccc1` [Example 124, (R)-(2,3-dichloro-4-fluorophenyl)(8-phenyl-3-(trifluoromethyl)-5,6-dihydro-[1,2,4]triazolo[4,3-a]pyrazin-7(8H)-yl)methanone], for which the Ki on P2X7 [1] came out at 7.9 nM. Besides, the IC50 at P2X7 [2] was 10.6 nM; at rat P2X7 [3] (FLIPR (rat) IC50 (μM)), 0.288 µM.
Regarding `O=C(c1cccc(C(F)(F)F)c1F)N1CCn2c(nnc2C(F)(F)F)[C@H]1c1ccccc1` [Example 128, (R)-(2-fluoro-3-(trifluoromethyl)phenyl)(8-phenyl-3-(trifluoromethyl)-5,6-dihydro-[1,2,4]triazolo[4,3-a]pyrazin-7(8H)-yl)methanone], the Ki on P2X7 [1] was determined as 50.1 nM. Also, the figures for the IC50 on P2X7 [2] and at rat P2X7 [3] (FLIPR (rat) IC50 (μM)) were 68.5 nM and 0.291 µM, respectively.

The values above are taken from US12338243B2, “P2X7 modulators” (JANSSEN PHARMACEUTICA NV, priority 2014, dated 2025).
